Measured values from ChEMBL document CHEMBL1201862, “PubChem BioAssay data set” (2004).
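Exposure lasted 48 hours, with cells grown in 96-well plates and compounds tested at five concentrations. The concentration for 50% growth inhibition is given as GI50.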 Calls of active or inactive are those of the source. Cut-off read from the data, not from the text of the source: active = GI50 up to about 1.1 µM and inactive = higher. Peptide text beside a SMILES is read from it. * marks the point of attachment. Cbz = O=C(OCc1ccccc1)*

Columns and labels:
Assay in all cases: NCI anticancer screen, dose series, 48 h
LOX IMVI = test system: LOX IMVI
UACC-62 = test system: UACC-62
SK-MEL-28 = test system: SK-MEL-28
SN12C = test system: SN12C
IGROV-1 = test system: IGROV-1
HCC 2998 = test system: HCC 2998
M14 = test system: M14
MDA-MB-435 = test system: MDA-MB-435
UACC-257 = test system: UACC-257
SF-268 = test system: SF-268
SF-295 = test system: SF-295
MDA-N = test system: MDA-N
HOP-62 = test system: HOP-62
NCI-H460 = test system: NCI-H460
COLO 205 = test system: COLO 205
RPMI-8226 = test system: RPMI-8226
MOLT-4 = test system: MOLT-4
786-0 = test system: 786-0
A549 = test system: A549
KM-20L2 = test system: KM-20L2

Q: `COc1ccc2oc(=N)c(C(N)=S)cc2c1` was tested. Which GI50 (LOX IMVI) did it give?
A: 15.4 µM (inactive)

Q: And the GI50 (UACC-62)?
A: 16 µM (inactive)

Q: And the GI50 (SK-MEL-28)?
A: 30.4 µM (inactive)

Q: What about the GI50 (SN12C) of the same compound?
A: 27.2 µM (inactive)

Q: And the GI50 (IGROV-1)?
A: 29.6 µM (inactive)

Q: And the GI50 (HCC 2998)?
A: 17.3 µM (inactive)

Q: And the GI50 (M14)?
A: 32.4 µM (inactive)

Q: And the GI50 (MDA-MB-435)?
A: 25.1 µM (inactive)

Q: What about the GI50 (UACC-257) of the same compound?
A: 26.9 µM (inactive)

Q: What about the GI50 (SF-268) of the same compound?
A: 15.5 µM (inactive)

Q: And the GI50 (SF-295)?
A: 37.1 µM (inactive)

Q: And the GI50 (MDA-N)?
A: 21.1 µM (inactive)

Q: What about the GI50 (HOP-62) of the same compound?
A: 31.8 µM (inactive)

Q: What about the GI50 (NCI-H460) of the same compound?
A: 16.9 µM (inactive)

Q: And the GI50 (COLO 205)?
A: 29.8 µM (inactive)

Q: And the GI50 (RPMI-8226)?
A: 21.3 µM (inactive)

Q: What about the GI50 (MOLT-4) of the same compound?
A: 20 µM (inactive)

Q: And the GI50 (786-0)?
A: 23.9 µM (inactive)

Q: And the GI50 (A549)?
A: 32.1 µM (inactive)

Q: Which GI50 (UACC-62) does the source give for `COC1C2C[C@@H](O)CCC2C(C(=O)OCCl)C[C@H]1O` (stereo partly specified) here?
A: > 100 µM (inactive)

Q: And the GI50 (SK-MEL-28)?
A: > 100 µM (inactive)

Q: And the GI50 (SN12C)?
A: > 100 µM (inactive)

Q: And the GI50 (IGROV-1)?
A: > 100 µM (inactive)

Q: And the GI50 (HCC 2998)?
A: > 100 µM (inactive)

Q: And the GI50 (M14)?
A: > 100 µM (inactive)

Q: What about the GI50 (UACC-257) of the same compound?
A: > 100 µM (inactive)

Q: What about the GI50 (SF-268) of the same compound?
A: > 100 µM (inactive)

Q: What about the GI50 (HOP-62) of the same compound?
A: > 100 µM (inactive)

Q: What about the GI50 (KM-20L2) of the same compound?
A: > 100 µM (inactive)

Q: And the GI50 (NCI-H460)?
A: > 100 µM (inactive)

Q: What about the GI50 (COLO 205) of the same compound?
A: > 100 µM (inactive)

Q: And the GI50 (RPMI-8226)?
A: > 100 µM (inactive)

Q: And the GI50 (MOLT-4)?
A: > 100 µM (inactive)

Q: What about the GI50 (786-0) of the same compound?
A: > 100 µM (inactive)

Q: And the GI50 (A549)?
A: > 100 µM (inactive)

Q: How did the GI50 (UACC-62) turn out when `CCOC(=O)N1CCC(=O)C[C@@H]1C/C=C/P1(=O)O[C@H](c2ccccc2)C(C)N1C(C)C` (stereo partly specified) was run?
A: > 100 µM (inactive)

Q: What about the GI50 (SK-MEL-28) of the same compound?
A: > 100 µM (inactive)

Q: And the GI50 (SN12C)?
A: > 100 µM (inactive)

Q: And the GI50 (IGROV-1)?
A: > 100 µM (inactive)

Q: What about the GI50 (HCC 2998) of the same compound?
A: > 100 µM (inactive)

Q: And the GI50 (UACC-257)?
A: > 100 µM (inactive)

Q: And the GI50 (SF-268)?
A: > 100 µM (inactive)

Q: What about the GI50 (SF-295) of the same compound?
A: > 100 µM (inactive)

Q: And the GI50 (KM-20L2)?
A: > 100 µM (inactive)

Q: What about the GI50 (RPMI-8226) of the same compound?
A: > 100 µM (inactive)

Q: And the GI50 (MOLT-4)?
A: > 100 µM (inactive)

Q: And the GI50 (786-0)?
A: > 100 µM (inactive)

Q: What about the GI50 (A549) of the same compound?
A: > 100 µM (inactive)

Q: `c1ccc2c(CNCCCCCCNCc3cccc4ccccc34)cccc2c1` was tested. Which GI50 (LOX IMVI) did it give?
A: 1.87 µM (inactive)

Q: What about the GI50 (UACC-62) of the same compound?
A: 9.73 µM (inactive)

Q: And the GI50 (SK-MEL-28)?
A: 1.85 µM (inactive)

Q: What about the GI50 (SN12C) of the same compound?
A: 12.4 µM (inactive)

Q: And the GI50 (IGROV-1)?
A: 16.2 µM (inactive)

Q: What about the GI50 (M14) of the same compound?
A: 1.79 µM (inactive)

Q: What about the GI50 (UACC-257) of the same compound?
A: 1.74 µM (inactive)

Q: And the GI50 (SF-268)?
A: 11.9 µM (inactive)

Q: What about the GI50 (SF-295) of the same compound?
A: 12.2 µM (inactive)

Q: And the GI50 (HOP-62)?
A: 16.1 µM (inactive)

Q: What about the GI50 (KM-20L2) of the same compound?
A: 2.61 µM (inactive)

Q: What about the GI50 (NCI-H460) of the same compound?
A: 1.81 µM (inactive)

Q: And the GI50 (COLO 205)?
A: 1.66 µM (inactive)

Q: What about the GI50 (RPMI-8226) of the same compound?
A: 2.27 µM (inactive)

Q: And the GI50 (MOLT-4)?
A: 3.04 µM (inactive)

Q: And the GI50 (786-0)?
A: 13 µM (inactive)

Q: What about the GI50 (A549) of the same compound?
A: 17.8 µM (inactive)

Q: Which results are given for `O=C(O)CCC(NC(=O)OCc1ccccc1)C(=O)NC(Cc1c[nH]cn1)C(=O)O` (stereo not drawn) (Cbz-Glu-His-OH; configuration not given here)?
A: GI50 (LOX IMVI): > 100 µM (inactive); GI50 (UACC-62): > 100 µM (inactive); GI50 (SK-MEL-28): > 100 µM (inactive); GI50 (SN12C): > 100 µM (inactive); GI50 (IGROV-1): > 100 µM (inactive); GI50 (HCC 2998): > 100 µM (inactive); GI50 (M14): > 100 µM (inactive); GI50 (MDA-MB-435): > 100 µM (inactive); GI50 (UACC-257): > 100 µM (inactive); GI50 (SF-268): > 100 µM (inactive); GI50 (SF-295): > 100 µM (inactive); GI50 (MDA-N): > 100 µM (inactive); GI50 (HOP-62): > 100 µM (inactive); GI50 (NCI-H460): > 100 µM (inactive); GI50 (COLO 205): > 100 µM (inactive); GI50 (RPMI-8226): > 100 µM (inactive); GI50 (MOLT-4): > 100 µM (inactive); GI50 (786-0): > 100 µM (inactive); GI50 (A549): > 100 µM (inactive)

Q: Which results are given for `CC1=C(/C=C/C(C)=C/C=C/C(C)=C/C(=O)Nc2ccc(O)cc2)C(C)(C)CCC1` [FENRETINIDE]?
A: GI50 (LOX IMVI): 1.74 µM (inactive); GI50 (UACC-62): 2.12 µM (inactive); GI50 (SK-MEL-28): 4.23 µM (inactive); GI50 (SN12C): 2.52 µM (inactive); GI50 (IGROV-1): 2.02 µM (inactive); GI50 (HCC 2998): 4.16 µM (inactive); GI50 (M14): 4.92 µM (inactive); GI50 (MDA-MB-435): 3.09 µM (inactive); GI50 (UACC-257): 9.71 µM (inactive); GI50 (SF-268): 3.52 µM (inactive); GI50 (SF-295): 2.85 µM (inactive); GI50 (MDA-N): 2.75 µM (inactive); GI50 (HOP-62): 5.46 µM (inactive); GI50 (NCI-H460): 4.63 µM (inactive); GI50 (COLO 205): 2.61 µM (inactive); GI50 (RPMI-8226): 1.65 µM (inactive); GI50 (MOLT-4): 1.11 µM (active); GI50 (786-0): 2.58 µM (inactive); GI50 (A549): 5.97 µM (inactive)

Q: For `CC(Cc1ccc(O)c(O)c1)C(C)Cc1ccc(O)c(O)c1` (stereo unspecified) [NORDIHYDROGUAIARETIC ACID], which GI50 (LOX IMVI) is on record?
A: 17.4 µM (inactive)

Q: And the GI50 (UACC-62)?
A: 16 µM (inactive)

Q: What about the GI50 (SK-MEL-28) of the same compound?
A: 16.2 µM (inactive)

Q: What about the GI50 (SN12C) of the same compound?
A: > 36.7 µM (inactive)

Q: What about the GI50 (IGROV-1) of the same compound?
A: 16.9 µM (inactive)

Q: What about the GI50 (HCC 2998) of the same compound?
A: 19.1 µM (inactive)

Q: And the GI50 (M14)?
A: 16.5 µM (inactive)

Q: And the GI50 (MDA-MB-435)?
A: 13.5 µM (inactive)

Q: What about the GI50 (UACC-257) of the same compound?
A: 18.2 µM (inactive)

Q: What about the GI50 (SF-268) of the same compound?
A: 16.3 µM (inactive)

Q: What about the GI50 (SF-295) of the same compound?
A: 22.1 µM (inactive)

Q: And the GI50 (MDA-N)?
A: 10.2 µM (inactive)

Q: What about the GI50 (HOP-62) of the same compound?
A: 17.1 µM (inactive)

Q: And the GI50 (NCI-H460)?
A: 16.7 µM (inactive)

Q: What about the GI50 (COLO 205) of the same compound?
A: 18.7 µM (inactive)

Q: What about the GI50 (RPMI-8226) of the same compound?
A: 10.1 µM (inactive)

Q: And the GI50 (MOLT-4)?
A: 8.22 µM (inactive)

Q: And the GI50 (786-0)?
A: 17.2 µM (inactive)

Q: What about the GI50 (A549) of the same compound?
A: 33 µM (inactive)

Q: For `COc1ccc(OC)c(Cc2cnc3nc(N)nc(N)c3c2C)c1` [PIRITREXIM ISETHIONATE], which GI50 (LOX IMVI) is on record?
A: < 0.0142 µM (active)

Q: What about the GI50 (UACC-62) of the same compound?
A: 0.853 µM (active)

Q: What about the GI50 (SK-MEL-28) of the same compound?
A: 1.25 µM (inactive)

Q: What about the GI50 (SN12C) of the same compound?
A: 0.352 µM (active)

Q: And the GI50 (IGROV-1)?
A: < 0.0111 µM (active)

Q: And the GI50 (HCC 2998)?
A: 0.258 µM (active)

Q: What about the GI50 (M14) of the same compound?
A: < 0.0201 µM (active)

Q: What about the GI50 (MDA-MB-435) of the same compound?
A: < 0.0435 µM (active)

Q: What about the GI50 (UACC-257) of the same compound?
A: 13.9 µM (inactive)

Q: And the GI50 (SF-268)?
A: 0.0957 µM (active)

Q: And the GI50 (SF-295)?
A: 0.0592 µM (active)

Q: And the GI50 (MDA-N)?
A: < 0.018 µM (active)

Q: What about the GI50 (HOP-62) of the same compound?
A: 0.188 µM (active)

Q: And the GI50 (NCI-H460)?
A: < 0.01 µM (active)

Q: And the GI50 (COLO 205)?
A: 12.9 µM (inactive)

Q: And the GI50 (RPMI-8226)?
A: 0.173 µM (active)

Q: And the GI50 (MOLT-4)?
A: < 0.0171 µM (active)

Q: What about the GI50 (786-0) of the same compound?
A: < 0.0497 µM (active)

Q: And the GI50 (A549)?
A: < 0.01 µM (active)
